Measurements taken from paper PMC9841525, “Chemical Blockage of the Mitochondrial Rhomboid Protease PARL by Novel Ketoamide Inhibitors Reveals Its Role in PINK1/Parkin-Dependent Mitophagy” (Journal of Medicinal Chemistry, 2022).
Entries after “also recorded” stand apart in the source; their conditions may differ. Where a SMILES comes first, the peptide text is derived from it. The star is where a group is joined. AMC = Cc1cc(=O)oc2cc(N*)ccc12

Columns and labels:
HEK293T cells = experiment: JC-1 mitochondrial membrane potential assay; assay type: cell-based, human; conditions: 5 µM compound 5 or CCCP, at least three hours, compared to DMSO
Procedure: Staining of cells for the determination of mitochondrial membrane potential was carried out with the JC-1 mitochondrial staining kit (Sigma-Aldrich) according to the kit’s instructions; stained cells were immediately taken to live cell imaging.
(§1) For fixation, cells were incubated for 15 min with 4% formaldehyde (16% formaldehyde diluted in PBS, Thermo Scientific) and washed in PBS. The cover glasses were mounted with Fluoromount-G (Southern Biotech) on microscope slides. All microscopy was performed on an LSM 780 system (Carl Zeiss) with a Plan-APOCHROMAT 63× 1.4NA oil objective (Carl Zeiss) and pinhole settings of 1 AU with the Zeiss ZEN 2010 software. Image processing and analysis was performed using ImageJ (http://rsb.info.nih.gov/ij/). […] Parkin recruitment events to the mitochondria were counted by hand throughout each z-stack and cell. […] JC-1 images were handled as summed intensity z-stack projections, as well as subjected to flatfield correction and subtraction of background before measuring the fluorescence levels normalized to the number of cell nuclei. The fluorescence intensity ratio between the red and green signal was calculated and compared to DMSO as a ratio of 1. Data were evaluated using Excel and GraphPad Prism 6.

Parkin [1] = experiment: Parkin recruitment to mitochondria, subcellular fractionation and immunoblot; assay type: cell-based, human; conditions: HEK293 T-REx PINK1 cells, HA-Parkin-IRES-GFP; 5 μM compound 5, CCCP 10 μM or Antimycin A 30 μM
Procedure: (§2) Inducible stable Flp-In HEK293 T-REx cells expressing PINK1 were described previously.[33] HEK293 T-REx PINK1 and HEK293T cells were grown in DMEM (Gibco) supplemented with 10% (v/v) fetal bovine serum (ThermoFisher), 1% (v/v) GlutaMAX (Gibco), 1% (v/v) sodium pyruvate (Gibco), 125 μg/mL hygromycin (Invitrogen), and 10 μg/mL blasticidin (Gibco) or DMEM supplemented with 10% (v/v) fetal bovine serum, respectively, at 37 °C in 5% (v/v) CO2. For microscopy, cells were seeded on poly-L-lysine (Sigma)-coated slides. Transient plasmid transfections were performed using 25 kDa linear polyethylenimine (Polysciences). Plasmid (100 ng) encoding HA-Parkin-IRES-GFP, mito-mCherry or Parkin-mEGFP, or 500 ng plasmid encoding PGAM5-FLAG were used per 6-well. Total transfected DNA was 2 μg/well. For siRNA transfection, 2 × 10^5 cells were seeded per 6-well and on the next day transfected with 20 nM siRNA-oligonucleotide using lipofectamine RNAiMAX (ThermoFisher). Cells were analyzed 27 h post-transfection or five days post-siRNA-transfection. HEK293 T-REx PINK1 cells were induced with 0.3 μg/mL doxycycline for 24 h before further processing. Hoechst staining (1 μg/mL) was done immediately before adding treatment to the cells. Treatments were administered for the indicated times before processing; CCCP (Sigma) was always used as 10 μM for 3 h and Antimycin A (Sigma) as 30 μM for 3 h.
Unless mentioned otherwise, all steps were performed at 4 °C. For subcellular fractionation to separate cellular content into cytosolic and mitochondrial fractions, cells were washed with PBS, harvested in PBS-EDTA (1 mM EDTA, 0.2 g/L D-glucose), and centrifuged at 500 × g for 5 min. […]
For immunoblot analysis in other cases, cells were either processed as described above or washed with PBS and directly lysed with Tris-glycine SDS-PAGE sample buffer and heated for 15 min at 65 °C. […] For quantification, ImageJ was used (http://rsb.info.nih.gov/ij/). […]

Parkin [2] = experiment: Parkin recruitment to mitochondria and mitochondrial morphology, fluorescence microscopy; assay type: cell-based, human; conditions: HEK293 T-REx PINK1 cells, 3 h
Procedure: as §2
as §1, with “slides.” for “slides. All microscopy was performed on an LSM 780 system (Carl Zeiss) with a Plan-APOCHROMAT 63× 1.4NA oil objective (Carl Zeiss) and pinhole settings of 1 AU with the Zeiss ZEN 2010 software. Image processing and analysis was performed using ImageJ (http://rsb.info.nih.gov/ij/).”

GlpG [3] = molecular target: T1, GlpG (Escherichia coli, UniProt P09391); assay type: biochemical, E. coli
T1 construct: Full-length GlpG with C-terminal His-tag was overexpressed from pET25b + in E. coli C43(DE3); His-tag (C); made in house; host or cells: E. coli C43(DE3)
Procedure: Emission spectra of aminomethyl coumarin and cleavage of compound 1 were monitored in 50 mM potassium phosphate pH 7.4, 150 mM NaCl, 20% (w/v) glycerol, 0.05% (w/v) PEG8000, 0.05% (w/v) DDM, 10% (w/v) DMSO. The compounds (1 mM) were incubated with 10 μM GlpG WT or S201T, 1 μM elastase, or buffer, respectively, as indicated in the legend of Figure 1A at 37 °C for 1 h. Samples were diluted 8-fold with buffer, and emission spectra were measured in 96-well black HTS plates (Greiner Bio-One) by a plate reader (Tecan Infinite M1000) using an excitation wavelength of 355 nm. Data were evaluated using Excel (Microsoft) and GraphPad Prism 9 (GraphPad Software, Inc.). The data shown are representative of three independent experiments.
(§3) Activity and inhibition assays of GlpG shown in Figure 1B–D were carried out in 50 mM potassium phosphate pH 7.4, 150 mM NaCl, 20% (v/v) glycerol, 0.05% (w/v) PEG8000, 0.05% (w/v) DDM, and 5% (v/v) DMSO. […] All activity measurements were performed at 37 °C in 96-well black HTS plates (Greiner Bio-One) and fluorescence was monitored in a plate reader (Tecan Infinite M1000) with excitation and emission wavelengths set to 355 and 450 nm, respectively, for compound 1, and 335 and 493 nm, respectively, for the transmembrane substrate KSp96. Data were evaluated using Excel (Microsoft) and GraphPad Prism 9 (GraphPad Software, Inc.).
Activity measurements of GlpG with varying DDM concentrations were obtained in 20 mM HEPES (pH 7.4), 150 mM NaCl using 100 nM GlpG, and DDM at the concentration indicated in the graphs. Buffer for measurements with compound 1 contained additionally 5% (v/v) DMSO. Compound 1 and transmembrane substrate were used at 10 μM final concentration. Activity measurements were performed at 37 °C in 96-well black HTS plates (Greiner Bio-One), and fluorescence was monitored in a plate reader (Tecan Infinite M1000) with excitation and emission wavelengths set to 355 and 450 nm for compound 1 and 335 and 493 nm for the transmembrane substrate, respectively. Data were evaluated using Excel (Microsoft) and GraphPad Prism 9 (GraphPad Software, Inc.).

[4] = Solubility of fluorogenic substrates in assay buffer (qualitative)
GlpG [5] = molecular target: T1, GlpG; experiment: Inhibition assay of GlpG with fluorogenic substrate compound 1; assay type: biochemical, E. coli; conditions: detergent-solubilized GlpG 100 nM, substrate compound 1, 1 h preincubation at 37 °C, mean ± SEM of three measurements
Procedure: as §3

PARL = molecular target: T2, PARL (Homo sapiens, UniProt Q9H300); experiment: In vitro assay for PARL activity, cleavage of AMC substrates by liposome-embedded PARL; assay type: biochemical; design: hexahistidine tag (C); made in house; host or cells: continuous-exchange cell-free expression in bacterial lysates with T7 polymerase (CUBE biotech), into liposomes; conditions: mature PARL in liposomes, S277A catalytic mutant as control
T2 sequence (Q9H300 53-379): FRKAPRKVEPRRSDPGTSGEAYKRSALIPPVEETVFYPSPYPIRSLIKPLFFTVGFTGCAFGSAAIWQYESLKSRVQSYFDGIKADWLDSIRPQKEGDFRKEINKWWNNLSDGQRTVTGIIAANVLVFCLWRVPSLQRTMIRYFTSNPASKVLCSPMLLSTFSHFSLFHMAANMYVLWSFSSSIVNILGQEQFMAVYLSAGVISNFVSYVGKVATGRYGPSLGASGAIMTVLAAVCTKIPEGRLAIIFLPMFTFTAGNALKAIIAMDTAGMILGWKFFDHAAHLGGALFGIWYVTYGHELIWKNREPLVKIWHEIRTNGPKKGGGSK
Procedure: Liposome preparation and cell-free protein expression of PARL were carried out essentially as described previously.[27] Liposomes resembling the lipid composition of the IMM were prepared by mixing 40% DOPC (1,2-dioleoyl-sn-glycero-3-phosphocholine), 33.8% DOPE (1,2-dioleoyl-sn-glycero-3-phosphoethanolamine), 18% CL(18:1)4 (1′,3′-bis[1,2-dioleyl-sn-glycero-3-phospho]-glycerol), 3% DOPS (1,2-dioleoyl-sn-glycero-3-phospho-L-serine), 5% soy-PI (L-α-phosphatidylinositol), and 0.2% rhodamine-PE (1,2-dioleoyl-sn-glycero-3-phosphoethanolamine-N-(lissamine rhodamine B sulfonyl)) in chloroform, followed by the evaporation of chloroform by a stream of nitrogen gas and drying in a vacuum chamber (Binder) for 1 h. […] Concentration of PARL was determined by absorption at 280 nm.
The PARL activity assay in vitro was carried out in 5 mM Tris, 5 mM Mg(OAc)2, 25 μM Zn(OAc)2, 0.1 μg/μL BSA, 30% DMSO, pH 8.0 using PARL in liposomes at 0.05 mg/mL. Compound 3 and 4 were used at 5 μM final concentration based on quantitative amino acid analysis. […] The cleavage reaction was carried out at 37 °C in 96-well black HTS plates (Greiner Bio-One) in a plate reader (Tecan Infinite M1000) with excitation and emission wavelengths set to 355 and 450 nm, respectively. Data were evaluated using Excel (Microsoft) and GraphPad Prism 9 (GraphPad Software, Inc.).

T1 sequence (P09391 whole entry): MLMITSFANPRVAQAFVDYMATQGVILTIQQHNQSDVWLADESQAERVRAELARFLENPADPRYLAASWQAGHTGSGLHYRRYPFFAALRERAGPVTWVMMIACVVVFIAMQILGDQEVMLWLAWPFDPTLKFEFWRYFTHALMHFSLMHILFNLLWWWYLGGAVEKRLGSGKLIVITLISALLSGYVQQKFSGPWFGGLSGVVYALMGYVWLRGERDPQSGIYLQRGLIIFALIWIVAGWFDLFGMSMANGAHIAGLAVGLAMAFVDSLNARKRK

## N#CC(C#N)=NNc1cccc(Cl)c1 [CCCP, carbonyl cyanide m-chlorophenyl hydrazone]
HEK293T cells
  Effect on mitochondrial membrane potential (JC-1 aggregate to monomer ratio): lowers the membrane potential
Parkin [1]
  Parkin recruitment to the mitochondrial fraction: significant recruitment of Parkin to the mitochondrial fraction
Parkin [2]
  Mitochondrial morphology: severe rounding and clustering

## CC(=O)N[C@@H](CCCNC(=N)N)C(=O)N[C@H](C(=O)N[C@@H](CCCNC(=N)N)C(=O)N[C@@H](Cc1c[nH]cn1)C(=O)N[C@@H](C)C(=O)Nc1ccc2c(C)cc(=O)oc2c1)C(C)C [compound 1, AcRVRHA-4mc] (Ac-RVRHA-{AMC})
GlpG [3]; GlpG in DDM micelle environment
  Apparent Michaelis constant for substrate: approximately 500 μM
GlpG [3]; GlpG, detergent
  Michaelis constant KM for substrate: about half
GlpG [3]; detergent micelles and/or DIBMA lipid nanodiscs
  Cleavage of substrate by GlpG: cleaved by GlpG with similar efficiency in lipid nanodiscs and in detergent micelles; also recorded: can be cleaved by active GlpG embedded in polymer nanodiscs
[4]
  Solubility of substrate: sufficiently soluble to be useable at hundreds of micromolar concentrations

## CC(=O)N[C@H](C(=O)N[C@@H](CCCNC(=N)N)C(=O)N[C@@H](Cc1c[nH]cn1)C(=O)N[C@@H](C)C(=O)C(=O)NCCCCc1ccccc1)C(C)C [compound 2]
GlpG [5]
  IC50: 132 ± 23 nM

## CC(=O)N[C@@H](CCCNC(=N)N)C(=O)N[C@@H](CCCNC(=N)N)C(=O)N[C@@H](CCCNC(=N)N)C(=O)N[C@@H](C)C(=O)N[C@H](C(=O)N[C@@H](Cc1ccccc1)C(=O)N[C@@H](CC(C)C)C(=O)N[C@@H](C)C(=O)Nc1ccc2c(C)cc(=O)oc2c1)C(C)C [compound 4, AcRRRAVFLA-4mc] (Ac-RRRAVFLA-{AMC})
PARL
  Cleavage of substrate by liposome-embedded PARL: are cleaved by liposome-embedded PARL but not its catalytic mutant
